# Data as given in US11214803B2, “Modulators of YAP1 expression” (Ionis Pharmaceuticals, Inc., priority 2019, dated 2022).
# Strand notation (5' to 3'): a small letter for the sugar, then the base; units joined by * are phosphorothioate-linked, units joined directly phosphodiester-linked; [ ] holds rarer units or linkages, { } end groups; capitals alone tell only the bases. e = 2'-O-(2-methoxyethyl) (MOE); k = constrained ethyl (cEt); [5mC] = 5-methylcytosine; d = 2'-deoxy (DNA); m = 2'-O-methyl
# System: Yap1 mRNA
# Test: Antisense inhibition of human Yap1 in SNU-449 cells by modified oligonucleotides, single dose (Example 5, RTS36584)
# Format: cell-based
# Conditions: Table 39; SNU-449 cells, 10,000 cells per well, free uptake, 2,000 nM oligonucleotide, approx. 48 hours; RTS36584; normalized to RIBOGREEN; Yap1 mRNA relative to untreated control
# How it was run: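 SNU-449 cells (10,000/well) took up 2,000 nM oligonucleotide by free uptake for about 48 h. Yap1 mRNA was measured by qRT-PCR with primer probe set RTS36584 and normalised to RIBOGREEN total RNA. Values are % of untreated control; asterisked oligos target the amplicon region.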
row,Substance,YAP1 (% UTC)
1,1198437 (kT*dT*dT*dA*dT*dG*dT*dA*dA*dT*dA*kT*eT*kG*e[5mC]*kA; antisense) [Compound 1198437],63
2,1198380 (kA*dG*dA*dG*dT*dA*dT*dG*dT*dG*dG*k[5mC]*eA*kA*eT*kA; antisense) [Compound 1198380],18
3,1198418 (kT*d[5mC]*dA*dG*dA*dT*dT*dT*dA*dG*dG*kA*eT*kG*e[5mC]*kA; antisense) [Compound 1198418],67
4,1198372 (kA*dA*dT*dT*dG*dT*d[5mC]*dT*d[5mC]*dA*dT*kG*e[5mC]*k[5mC]*eT*kT; antisense) [Compound 1198372],21

# Same assay, conditions: Table 40 (separate experiment); SNU-449 cells, 10,000 cells per well, free uptake, 2,000 nM oligonucleotide, approx. 48 hours; RTS36584; normalized to RIBOGREEN; Yap1 mRNA relative to untreated control
row,Substance,YAP1 (% UTC)
1,1198785 (antisense kT*eT*kT*dA*dT*dG*dT*dA*dA*dT*dA*dT*eT*eG*k[5mC]*kA) [Compound 1198785],86

# Same assay, conditions: Table 41; SNU-449 cells, 10,000 cells per well, free uptake, 2,000 nM modified oligonucleotide, approximately 48 hours; RTS36584; normalized to RIBOGREEN; Yap1 mRNA relative to untreated control cells
row,Substance,YAP1 (% UTC)
1,1198673 (antisense kG*kA*dT*dT*dT*dA*dG*dG*dA*dT*dG*d[5mC]*kA*eT*kG*eG) [Compound 1198673],10
2,1198651 (kT*kT*dA*d[5mC]*dA*dT*dT*dA*dG*dG*dA*dA*k[5mC]*eA*kA*eG; antisense) [Compound 1198651],94
3,1198768 (kA*eT*kA*dT*dG*dG*dT*dT*dT*dT*dG*dT*eG*eT*kG*kT; antisense) [Compound 1198768],61
4,1198734 (kA*eG*kG*dT*dA*dT*dA*dA*d[5mC]*dT*dG*dG*eG*e[5mC]*kA*kA; antisense) [Compound 1198734],29

# Same assay, conditions: Table 42 (separate experiment); SNU-449 cells, 10,000 cells per well, free uptake, 2,000 nM modified oligonucleotide, approximately 48 hours; RTS36584; normalized to RIBOGREEN; Yap1 mRNA relative to untreated control cells
row,Substance,YAP1 (% UTC)
1,1198232 (kT*kT*dT*dG*dG*dA*dA*dG*dA*dT*d[5mC]*eT*eG*eA*kA*kA) [Compound 1198232],92
2,"1198681 (antisense T_{ks}C_{ks}T_{ds}T_{ds}A_{ds}T_{ds}A_{ds}T_{ds}G_{ds}G_{ds}T_{ds}T_{ds}T_{ks}T_{es}G_{ks}T_{e}; as printed in the source, key not given here) [Compound 1198681]",54
3,1198222 (kT*kT*dT*dT*dA*d[5mC]*dA*dT*dT*dA*dG*eG*eA*eA*k[5mC]*kA) [Compound 1198222],87
4,1198208 (kA*kG*dA*dG*dT*dA*dT*dG*dT*dG*dG*e[5mC]*eA*eA*kT*kA; antisense) [Compound 1198208],25

# Same assay, conditions: Table 43 experiment; SNU-449 cells, 10,000 cells per well, free uptake, 2,000 nM, approximately 48 hours; RTS36584; Yap1 mRNA normalized to RIBOGREEN, relative to untreated control cells
row,Substance,YAP1 (% UTC)
1,1198263 (kA*kT*dG*dT*dA*dA*dT*dA*dT*dT*dG*e[5mC]*eA*eA*kT*k[5mC]; antisense) [Compound 1198263],114
2,1198466 (antisense kA*kG*dA*dG*dT*dA*dT*dG*dT*dG*dG*e[5mC]*kA*eA*kT*eA) [Compound 1198466],12
3,1198250 (k[5mC]*kT*dT*dA*dT*dA*dT*dG*dG*dT*dT*eT*eT*eG*kT*kG; antisense) [Compound 1198250],50
4,1198264 (kT*kA*dT*dG*dT*dA*dA*dT*dA*dT*dT*eG*e[5mC]*eA*kA*kT; antisense) [Compound 1198264],73
5,1198241 (kT*kT*dT*dA*dG*dG*dA*dT*dG*d[5mC]*dA*eT*eG*eG*kT*kT; antisense) [Compound 1198241],32

# Same assay, conditions: Table 44 experiment; SNU-449 cells, 10,000 cells per well, free uptake, 2,000 nM, approximately 48 hours; RTS36584; Yap1 mRNA normalized to RIBOGREEN, relative to untreated control cells
row,Substance,YAP1 (% UTC)
1,1198525 (kA*kG*dT*dG*dT*dA*dT*dG*dT*d[5mC]*dA*eG*kA*eA*kG*eA; antisense) [Compound 1198525],2
2,1198501 (kG*kA*dT*dT*dT*dA*dG*dG*dA*dT*dG*e[5mC]*kA*eT*kG*eG; antisense) [Compound 1198501],5
3,1198511 (kA*k[5mC]*dT*d[5mC]*dT*dT*dA*dT*dA*dT*dG*eG*kT*eT*kT*eT; antisense) [Compound 1198511],53

# Same assay, conditions: Table 45; Yap1 mRNA as percent of untreated control, SNU-449 cells, single dose
row,Substance,YAP1 (% UTC)
1,1198964 (kT*kT*dT*dA*dA*dA*dG*dT*dG*dT*dA*kT*dG*kT*d[5mC]*kA; antisense) [Compound 1198964],59
2,1198937 (k[5mC]*kA*dG*dA*dT*dT*dT*dA*dG*dG*dA*kT*dG*k[5mC]*dA*kT; antisense) [Compound 1198937],48
3,1198953 (kG*kT*dA*dA*dT*dA*dT*dT*dG*d[5mC]*dA*kA*dT*k[5mC]*dT*kG; antisense) [Compound 1198953],58
4,1198911 (kG*kA*dG*dG*dT*dA*dT*dA*dA*d[5mC]*dT*kG*dG*kG*d[5mC]*kA; antisense) [Compound 1198911],26

# Same assay, conditions: Table 46; Yap1 mRNA as percent of untreated control, SNU-449 cells, single dose
row,Substance,YAP1 (% UT)
1,1198863 (kA*kT*dT*dG*d[5mC]*dA*dA*dT*d[5mC]*dT*dG*kT*e[5mC]*kT*eG*kA; antisense) [Compound 1198863],65

# Same assay, conditions: Table 48; Yap1 mRNA level relative to untreated control; modified oligonucleotides targeting SEQ ID NO.: 1 and 2
row,Substance,YAP1 (% UT)
1,1198285 (kA*kT*kT*dG*dT*d[5mC]*dT*d[5mC]*dA*dT*dG*d[5mC]*k[5mC]*eT*kT*eA; antisense) [Compound 1198285],13
2,1198312 (kG*k[5mC]*kA*d[5mC]*dT*dT*dT*dT*dA*d[5mC]*dA*dT*kT*eA*kG*eG; antisense) [Compound 1198312],7
3,1198348 (kT*kG*kT*dA*dA*dT*dA*dT*dT*dG*d[5mC]*dA*kA*eT*k[5mC]*eT; antisense) [Compound 1198348],40
4,1198314 (kA*kA*kG*d[5mC]*dA*d[5mC]*dT*dT*dT*dT*dA*d[5mC]*kA*eT*kT*eA; antisense) [Compound 1198314],82

# Same assay, conditions: Table 49; Yap1 mRNA level relative to untreated control; modified oligonucleotides targeting SEQ ID NO.: 1 and 2
row,Substance,YAP1 (% UT)
1,1198544 (antisense kA*kA*kT*dT*dG*dT*d[5mC]*dT*d[5mC]*dA*dT*dG*k[5mC]*k[5mC]*kT*eT) [Compound 1198544],21
2,1198570 (antisense kG*k[5mC]*kA*d[5mC]*dT*dT*dT*dT*dA*d[5mC]*dA*dT*kT*kA*kG*eG) [Compound 1198570],15

# Same assay, conditions: Table 50; Yap1 mRNA remaining as percent of untreated control (UT), SNU-449 cells, single dose
row,Substance,YAP1 (% UT)
1,1198610 (antisense kT*kG*kT*dA*dT*dG*dT*d[5mC]*dA*dG*dA*dA*kG*kA*kG*eT) [Compound 1198610],TksGksTksAdsTdsGdsTds^mCdsAdsGds4 % UT
2,1198595 (antisense kT*k[5mC]*kT*dT*dA*dT*dA*dT*dG*dG*dT*dT*kT*kT*kG*eT) [Compound 1198595],27 % UT
3,1198585 (antisense kT*kT*kT*dA*dG*dG*dA*dT*dG*d[5mC]*dA*dT*kG*kG*kT*eT) [Compound 1198585],22 % UT
4,1197244 (antisense kT*kT*kA*d[5mC]*mA*dT*dT*dA*dG*dG*dA*dA*d[5mC]*kA*kA*kG) [Compound 1197244],60 % UT
5,1198608 (antisense kT*kA*kT*dG*dT*dA*dA*dT*dA*dT*dT*dG*k[5mC]*kA*kA*eT) [Compound 1198608],83 % UT

# Same assay, conditions: Table 51; Yap1 mRNA remaining as percent of untreated control (UT), SNU-449 cells, single dose
row,Substance,YAP1 (% UT)
1,1197290 (kG*kA*kG*dG*mU*dA*dT*dA*dA*d[5mC]*dT*dG*dG*kG*k[5mC]*kA) [Compound 1197290],37
2,1197270 (kT*kT*kA*dA*mA*dG*dT*dG*dT*dA*dT*dG*dT*k[5mC]*kA*kG) [Compound 1197270],2
3,1200785 (kA*kT*kT*dG*dT*mC*dT*d[5mC]*dA*dT*dG*d[5mC]*d[5mC]*kT*kT*kA; antisense) [Compound 1200785],15

# Same assay, conditions: Table 52; Yap1 mRNA, modified oligonucleotides targeting SEQ ID NO: 1 and 2
row,Substance,YAP1 (% UT)
1,1200838 (kA*kT*kA*dT*dG*mG*dT*dT*dT*dT*dG*dT*dG*kT*kG*kT; antisense) [Compound 1200838],65
2,1200864 (kA*kA*k[5mC]*dT*dT*mU*dA*dA*dA*dG*dT*dG*dT*kA*kT*kG; antisense) [Compound 1200864],84
3,1200808 (kA*k[5mC]*kT*dG*dA*mG*dG*dT*dA*dT*dA*dA*d[5mC]*kT*kG*kG; antisense) [Compound 1200808],45

# Same assay, conditions: Yap1 mRNA, percent of untreated control; modified oligonucleotides targeting SEQ ID NO: 1 and 2; Table 47
row,Substance,YAP1 (% UT)
1,1197188 (antisense kT*kT*kG*dG*dA*dA*dG*dA*dT*d[5mC]*dT*dG*dA*kA*kA*k[5mC]) [Compound 1197188],96
2,1197198 (antisense kA*kT*kT*d[5mC]*dA*dG*dA*dT*dT*dT*dA*dG*dG*kA*kT*kG) [Compound 1197198],139
3,1197185 (antisense kA*kA*kG*d[5mC]*dA*d[5mC]*dT*dT*dT*dT*dA*d[5mC]*dA*kT*kT*kA) [Compound 1197185],55
4,1197191 (antisense kA*kG*kT*dG*d[5mC]*dT*dT*dT*dG*dG*dA*dA*dG*kA*kT*k[5mC]) [Compound 1197191],40
5,1198880 (kA*kA*d[5mC]*dT*dT*dT*dA*dA*dA*dG*dT*kG*eT*kA*eT*kG; antisense) [Compound 1198880],98
